The target in one data set is human CAIX (Homo sapiens, UniProt Q16790). The data set is described as follows: Radioligand saturation binding and equilibration on CHO-huCAIX. Details: host or cells: CHO-VGT / CHO cells. As to the method: (§1) After attainment of equilibrium, the cells were harvested, and the bound fraction of the compounds was measured. The resulting saturation binding data were analyzed using Graph Pad Prism 8.3.
(§2) CHO cells transfected with human, dog, and mouse CAIX (CHO-huCA9 T04J-1/20 K1, CHO-dogCA9 T05J-9/20 K4, CHO-murCA9 T05J-3/20 K4) were obtained from InSCREENex (Germany).
(§3) A molar excess of 3BP-3565 was used as a blocking peptide to assess non-specific binding in autoradiographic studies. 3BP-3565 binds with a similar affinity to CAIX and blocks binding sites of test compounds. For the blocking solution, a 10 mM stock solution of 3BP-3565 was prepared by dissolution in DMSO.
(§4) CHO cells were maintained in Ham's medium supplemented with 10% fetal bovine serum, 2 mM L-glutamine, 100 U/mL Penicillin and 0.1 mg/mL streptomycin under standard cell culture conditions. The cells were grown in uncoated cell culture flasks (150 cm^2, Biochrom) to subconfluence and then split 1:2-1:3. Approximately 24 hours before the assay, cells were detached by incubation with Accutase and carefully tapping the flasks. Detached cells were resuspended in medium and collected by centrifugation (300 g, 5 min, RT). Cell pellets were resuspended in cell culture medium and counted using a particle counter (CASY Model TT, Scharfe Systems, Germany). Cell concentrations were adjusted to 3×10^5 mL^−1, and 1.000 μL per well of the suspension were dispensed into poly-D-lysine-coated flat-clear-bottom 24 well plates.
(§5) Compound radiolabeling was performed as follows. […] Then, 25 mg/mL methionine in 1 M sodium acetate buffer pH 5 was added at a final concentration of 0.1 M sodium acetate. Subsequently, the mixture was heated to 80° C. for 25 min, followed by cooling for 5 minutes. Finally, 20 μL of 200 mg/mL ascorbic acid solution, 2.5 μL of 5 mg/mL DTPA and 2.5 μL of 5% TWEEN-20 per 100 μL reaction mixture were added, resulting in the concentrated study solution. For quality control, an aliquot of the labeling solution was diluted 1:40 with 0.1% TWEEN-20 in 0.1 M sodium acetate buffer pH 5. Five microliters of the diluted labeling solution were injected onto a Poroshell SB-C18 2.1×50 mm, 2.7 μm column. HPLC analysis was performed as follows: Gradient A: H2O, 0.1% TFA, Gradient B: Acetonitrile (MeCN), gradient from 5% B to 70% B within 15 min, flow rate of 0.5 mL/min; detector: NaI, DAD 215 nm. The peak eluting with the dead volume represents free radionuclide, the peak eluting with the ligand-specific retention time as determined with a non-labeled sample represents the radiolabeled compound.
The assessment of the time needed until attainment of equilibration on CHO-huCAIX and CHO-dgCAIX was performed as follows. The 10 mM 3BP-3565 stock solution was diluted with assay medium (Ham's medium without additives) to prepare an 8-μM blocking working solution. The radiolabeling mixtures were diluted with assay medium to prepare 160 nM radioligand working solutions. Subsequently, 1.6 and 3.2 nM radioligand dilutions were prepared by diluting the radioligand working solutions 1:100 and 1:50, respectively, with assay medium. Approximately 24 hours after re-seeding (3×10^5 mL^−1 cells per well), the medium was aspirated, and the cells were washed once with assay medium (700 μL). To determine total binding, 700 μL of binding medium and 100 μL of the radioligand dilutions were added to the wells in triplicates.
To determine non-specific binding, 600 μL of binding medium, 100 μL of the […] 3BP-3565 blocking solution and 100 μL of the radioligand dilutions were added to the wells in triplicates. The plates were incubated for 1 h, 3 h, 6 h, and 8 h at 37° C. under standard cell culture conditions (5% CO2). At the end of the incubation time, the plates were placed on ice while aspirating the radioligand solutions. Subsequently, the cells were washed with ice-cold PBS (0.5 mL, 1 mL, 1 mL). […]

For the next data set, the target named is T1, mouse CAIX (Mus musculus, UniProt Q8VHB5).
T1 construct: host or cells: CHO-VGT / CHO cells
T1 sequence (Q8VHB5 32-437): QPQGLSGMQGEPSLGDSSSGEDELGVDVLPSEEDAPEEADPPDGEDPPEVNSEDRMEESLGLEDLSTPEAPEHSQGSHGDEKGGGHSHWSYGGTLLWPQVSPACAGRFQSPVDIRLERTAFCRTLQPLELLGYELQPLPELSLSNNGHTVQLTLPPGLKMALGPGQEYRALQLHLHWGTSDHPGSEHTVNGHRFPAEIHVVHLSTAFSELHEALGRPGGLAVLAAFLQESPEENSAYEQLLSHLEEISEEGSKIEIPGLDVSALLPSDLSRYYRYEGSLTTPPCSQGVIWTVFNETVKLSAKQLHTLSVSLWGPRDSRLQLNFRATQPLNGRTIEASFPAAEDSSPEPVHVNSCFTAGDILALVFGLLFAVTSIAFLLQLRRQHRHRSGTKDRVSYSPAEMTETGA
Put plainly: Radioligand saturation binding on CHO-msCAIX. Particulars: CHO-msCAIX, single experiment. As to the method:
as §1, §2, §3, §4, §5
The radioligand saturation binding on CHO-msCAIX was determined as follows. […] Their associated radioactivity was counted using a gamma counter and normalized to the measured protein concentration of each well. […]

The conditions of data set [1]: dog, in vivo.
Data set [2] is described as follows: Biodistribution study (SPECT/CT) in SK-RC-52 tumor-bearing mice with or without gelofusine. The conditions noted are these: female, NMRI nude, mouse, in vivo, iv, total radioactivity, peak tumor uptake, typical (conclusion). It counts as in vivo, NMRI nude mice. The method, then: The effect on tumor uptake of prior injection of gelofusine for kidney protection was investigated in mice bearing the SK-RC-52 tumor. Biodistribution was evaluated using in vivo SPECT/CT imaging. Prior to the in vivo study the compounds (ligands) were initially radiolabeled with In-111 and the stability of radiolabeled compounds was evaluated in buffer at three different timepoints.
The study was performed in female NMRI nude mice (approximately 6 weeks of age) from Janvier Labs, France, housed up to 5 mice per cage.
The column was washed with 2 mL water, and then the final product was eluted from the column in EtOH solution (50%) • The sample was formulated in PBS to the final concentration of 150 MBq/mL and 5 nmol/mL.
SK-RC-52 cells were cultured in RPMI 1640 with GlutaMax-I (Thermo Fisher Scientific #61870044) supplemented with 10% fetal bovine serum+1% penicillin/streptomycin, harvested, washed twice in RPMI 1640 and resuspended at 2×10^7 cells/mL in RPMI 1640. HT-29 cells were cultured in McCoy's 5a Medium Modified (Sigma #M9309). For inoculation of HT-29 cells, cells were harvested, washed twice in PBS and resuspended at 5×10^7 cells/mL in PBS. Cells were kept on ice until inoculation.
Animals were anaesthetized (isoflurane, 2-4% in ambient air supplemented with 100% 02) prior to tumor inoculation. The tumor cells (100 μL suspension of either SK-RC-52 cells (2×10^6 cells/animal) or HT-29 cells (5×10^6 cells/animal)) were subcutaneously inoculated in the right flank using a 1-mL syringe equipped with a 27 G needle. Tumor growth and animal weight were measured twice per week. Tumor size was measured by caliper and the volume was estimated using the following formula: 0.52×(length×width^2). When tumor sizes reached 150-250 mm^3, animals were randomized into groups (n=3) of similar average tumor volume and body weight.
Animals were injected intravenously with In-111-labeled compounds (single bolus, 22.3-31.2 MBq, ˜1 nmol ligand, injection volume: 100 μL) in the lateral tail vein using a 29 G syringe.
CT was performed with helical scan, 300 ms exposure, reconstruction resolution of 250 μm. SPECT was performed with multi-pinhole scan and a 30 s frame time. For the quantification of the radioactivity uptake, regions of interests (ROIs) were drawn over the tumor, kidney, liver, and heart (estimate of blood) identified on the images. Uptake was expressed as percent of injected dose per gram tissue (% ID/g).

Data set [3] in a line: Plasma stability assay, human plasma. Particulars: 37°C.
Data set [4] in a line: Plasma stability assay, mouse plasma. Particulars: mouse plasma, 37°C, 24 h.
Data set [5] in a line: In vivo efficacy, biodistribution and tolerability of 225Ac-DPI-4452 in HT-29 xenograft mouse model. Further details: species or system NMRI nude mice. Particulars: female, NMRI nude, mouse, iv, total radioactivity, HT-29 model, 15 kBq, 4 hours after dosing.
The subject of data set [6] is HT-29 (CRC) human cancer cell line xenograft. The data set is described as above. Details: species or system NMRI nude mice. Particulars: HT-29 model.
Data set [7] in a line: In vivo efficacy, biodistribution and tolerability of 225Ac-DPI-4452 in SK-RC-52 xenograft mouse model. Further details: species or system NMRI nude mice. Particulars: female, NMRI nude, mouse, iv, total radioactivity, SK-RC-52 model, 15 kBq, 4 hours after dosing.
The test system of data set [8] is SK-RC-52 (ccRCC) human cancer cell line xenograft. Described as above. The conditions noted are these: SK-RC-52 model. Further details: species or system NMRI nude mice.
The mark [9] stands for this setting: colon, small intestine and stomach.
The mark [10] stands for this setting: kidney, read-out: kidney uptake.

Like-named read-outs stand apart in the source and are kept apart here. Some results are limits rather than exact numbers.

At human CAIX (CHO-huCAIX), `CC(C)C[C@@H]1NC(=O)[C@H](Cc2ccc(NC(=O)CCS(N)(=O)=O)cc2)NC(=O)[C@H](CC(=O)O)NC(=O)[C@H]2CCCN2C(=O)[C@H](CCC(=O)O)NC(=O)[C@@H](NC(=O)[C@H](CCC(N)=O)NC(=O)CN2CCN(CC(=O)O)CCN(CC(=O)O)CCN(CC(=O)O)CC2)CSCc2cccc(c2)CSC[C@@H](C(N)=O)NC(=O)[C@H](CO)NC(=O)[C@H](Cc2c[nH]c3ccccc23)NC(=O)[C@H]([C@@H](C)O)NC1=O` [[^111In]In-DPI-4501, metal not drawn] showed a koff of 0.00012 s⁻¹. The Kd at human CAIX (CHO-huCAIX, first independent experiment, read-out: pKd (converted)) is 0.158 nM; on human CAIX (CHO-huCAIX, read-out: Mean pKd ± SD (converted)), 0.251 nM; on human CAIX (CHO-huCAIX, second independent experiment, read-out: pKd (converted)), 0.398 nM; on human CAIX (human CAIX expressed in CHO cells, 8 h at 37°C, read-out: pKd (converted)), ≤ 1 nM; on mouse CAIX (read-out: pKd (converted)), 12.6 nM. The “Mean pKd ± SD” value at mouse CAIX is given as 7.9. Besides, the half-life in data set [1] was found to be 68.9 min; in data set [1] (iv) it was 5.88 min. Further, in data set [2], the tissue uptake was found to be 7 %ID/g.

On to `CC(C)C[C@@H]1NC(=O)[C@H](Cc2cccc(NC(=O)CCCS(N)(=O)=O)c2)NC(=O)[C@H](CC(=O)O)NC(=O)[C@H]2CCCN2C(=O)[C@H](CCC(=O)O)NC(=O)[C@@H](NC(=O)[C@H](CCC(N)=O)NC(=O)CN2CCN(C(=O)CN3CCN(CC(=O)O)CCN(CC(=O)O)CCN(CC(=O)O)CC3)CC2)CSCc2cccc(c2)CSC[C@@H](C(N)=O)NC(=O)[C@H](CO)NC(=O)[C@H](Cc2c[nH]c3ccccc23)NC(=O)[C@H]([C@@H](C)O)NC1=O` (natLu complex, metal not drawn) [3BP-4555], for which the “% intact compound remaining after 24 h incubation” value in data set [3] is on record as >95%. Also, the “% intact compound remaining (incubation time)” value in data set [4] is reported as >95%.

For the compound `CC(C)C[C@@H]1NC(=O)[C@H](Cc2cccc(NC(=O)CCCS(N)(=O)=O)c2)NC(=O)[C@H](CC(=O)O)NC(=O)[C@H]2CCCN2C(=O)[C@H](CCC(=O)O)NC(=O)[C@@H](NC(=O)[C@H](CCC(N)=O)NC(=O)CN2CCN(C(=O)CN3CCN(CC(=O)O)CCN(CC(=O)O)CCN(CC(=O)O)CC3)CC2)CSCc2cccc(c2)CSC[C@@H](C(N)=O)NC(=O)[C@H](CO)NC(=O)[C@H](Cc2c[nH]c3ccccc23)NC(=O)[C@H]([C@@H](C)O)NC1=O` [^225Ac-DPI-4452, metal not drawn], the tissue uptake at 4 h is 11.3 ± 1.3 %ID/g in data set [5] (HT-29 tumor, ex vivo gamma counter, read-out: tumor uptake); < 1.1 %ID/g in data set [5] (setting [9]); 7.9 ± 1.3 %ID/g in [5] (setting [10]); 39.1 ± 1.6 %ID/g in data set [7] (SK-RC-52 tumor, ex vivo gamma counter, read-out: tumor uptake); < 1.1 %ID/g in data set [7] (setting [9]); 4.9 ± 0.2 %ID/g in data set [7] (setting [10]). Also, the “creatinine values versus vehicle” value is recorded as “slightly elevated” in data set [6] (135 kBq, day 14) and “slightly elevated” in data set [8] (135 kBq, day 14). Further, the tolerability of treatment entry is “well tolerated” in [6] (single 15, 45 or 135 kBq i.v.) and “well tolerated” in data set [8] (single 15, 45 or 135 kBq i.v.).

Values taken from patent US20250339569A1, “CARBONIC ANHYDRASE IX LIGANDS” (priority 2021, published 2025).
